We go through 1 compound from paper PMC5552880, “The Bitter Taste Receptor TAS2R16 Achieves High Specificity and Accommodates Diverse Glycoside Ligands by using a Two-faced Binding Pocket” (Scientific Reports, 2017).

By EC50 is commonly meant the concentration needed to bring the measured effect to its halfway point.

What all share (format): cell-based
One assay addresses T1, Y14H TAS2R16 (Homo sapiens, UniProt Q9NYV7, Y14H).
T1 construct: FLAG (N); expressed in transfected cells; host or cells: HEK-293T
Nature of the assay: Ca2+ flux assay, mutation library clone Y14H. The following applies: 3 mM salicin, mean (range, max-min), n=3. As to the method: (§1) The TAS2R16 mutation library was tested for function using a Ca^2+ flux assay as described previously. Later screens of individual TAS2R16 mutant clones used 4-nitrophenyl-β-D-glucopyranoside. Briefly, HEK-293T cells, in poly-lysine coated, black 384-well plates with clear bottoms (Costar), were transfected with the TAS2R16 mutation library, and a plasmid expressing a Gα16 chimera containing the last 44 amino acids of rat gustducin (Gα16gust44). Cells were incubated for 22 hours at 37 °C then washed twice with a calcium indicator dye in HBSS containing 20 mM HEPES (Calcium 4 Assay kit, Molecular Devices), incubated with HBSS for 1.5 hr, then moved to a Flexstation II-384 (Molecular Devices) set at 32 °C. […] Concentrations for mutation library screening were chosen to be approximately 2 to 3 times higher than the EC50 values for the ligands to maximize the sensitivity of detecting decreases in signaling due to the mutation in each clone.
(§2) For Ca^2+ flux assays, the value of fluorescence at 30 seconds after ligand addition (the time of peak signal for wild-type TAS2R16) was used as the maximum value. […] Data sets were analyzed and represented as percentage over baseline signal. Mean and standard deviation values were calculated for each clone from replicate assay data.
Background: A change in cytosolic calcium serves as a functional read-out for many receptors and channels.

For another assay, the target named is T2, W261A TAS2R16 (Homo sapiens, UniProt Q9NYV7, W261A).
T2 construct: FLAG (N); expressed in transfected cells; host or cells: HEK-293T
T2 sequence (Q9NYV7 1-291 W261A): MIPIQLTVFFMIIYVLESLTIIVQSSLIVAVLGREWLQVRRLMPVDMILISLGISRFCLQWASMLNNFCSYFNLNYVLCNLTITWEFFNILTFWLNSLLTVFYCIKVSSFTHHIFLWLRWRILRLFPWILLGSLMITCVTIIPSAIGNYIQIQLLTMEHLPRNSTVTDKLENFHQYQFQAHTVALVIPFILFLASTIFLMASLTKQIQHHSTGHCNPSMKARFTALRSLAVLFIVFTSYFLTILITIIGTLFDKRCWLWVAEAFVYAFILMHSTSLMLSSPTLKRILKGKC
The assay can be described thus: Ca2+ flux assay, W261A TAS2R16 variant. As to the method: as §1
(§3) For Ca^2+ flux assays, the value of fluorescence at 30 seconds after ligand addition (the time of peak signal for wild-type TAS2R16) was used as the maximum value. […] Raw data obtained from surface expression and flux experiments were normalized to the values for wild-type TAS2R16 on each plate. Data sets were analyzed and represented as percentage over baseline signal. Mean and standard deviation values were calculated for each clone from replicate assay data.
(§4) Ligand dose-response data was analyzed with Graphpad Prism 5 software. Data was baseline subtracted and then fit using a sigmoidal dose-response (variable slope) equation.

The target of the next assay is T3, wild-type TAS2R16 (Homo sapiens, UniProt Q9NYV7).
T3 construct: FLAG (N); expressed in transfected cells; host or cells: HEK-293T
T3 sequence (Q9NYV7 1-291): T2 sequence (Q9NYV7 1-291 W261A) with A261W
The assay can be described thus: Ca2+ flux assay, HEK-293T cells expressing wild-type TAS2R16 and Gα16gust44. As to the method: as §1, §3, §4

The target in another assay is T4, N96A TAS2R16 (Homo sapiens, UniProt Q9NYV7, N96A).
T4 construct: FLAG (N); expressed in transfected cells; host or cells: HEK-293T
The assay can be described thus: Ca2+ flux assay, N96A TAS2R16 variant. Particulars: Fig. 7 dose-response. As to the method: as §1, §2
Ligand dose-response data was analyzed with Graphpad Prism 5 software. […]

Molecules are shown by their SMILES. Changes are numbered by the printed parent chain. Like-named read-outs stand apart in the source and are kept apart here.

T4 sequence (Q9NYV7 whole entry N96A): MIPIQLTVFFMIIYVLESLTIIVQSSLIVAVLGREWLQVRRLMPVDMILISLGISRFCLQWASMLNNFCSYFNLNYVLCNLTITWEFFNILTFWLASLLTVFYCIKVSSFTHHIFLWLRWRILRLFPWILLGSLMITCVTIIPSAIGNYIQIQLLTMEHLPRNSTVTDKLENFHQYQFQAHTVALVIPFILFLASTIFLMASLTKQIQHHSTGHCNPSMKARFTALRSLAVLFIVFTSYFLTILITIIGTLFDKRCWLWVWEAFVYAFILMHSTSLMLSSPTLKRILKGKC
T1 sequence (Q9NYV7 whole entry Y14H): as the sequence (Q9NYV7 whole entry N96A) above, with Y14H, A96N counted along it

For the compound `OCc1ccccc1O[C@@H]1O[C@H](CO)[C@@H](O)[C@H](O)[C@H]1O` [salicin], the “Ca2+ flux in response to salicin” value on Y14H TAS2R16 is listed as 9 (9) % of wild-type. For the same compound, the concentration for a half-maximal effect (EC50) on W261A TAS2R16 (Fig. 5b dose-response, W261A TAS2R16) is ~13.4 mM; on wild-type TAS2R16 (Fig. 5b dose-response, wild-type TAS2R16, read-out: EC50 (WT)) it was 1.1 mM; at wild-type TAS2R16 (Fig. 6 comparative dose-response, wild-type TAS2R16, read-out: EC50 (WT)) it was 1.7 mM; at wild-type TAS2R16 (Fig. 7 dose-response, wild-type TAS2R16, read-out: EC50 (WT)), 5.5 mM; at wild-type TAS2R16 (Fig. 2d dose-response, wild-type TAS2R16, HEK-293T, read-out: EC50), 1.2 mM; on N96A TAS2R16 it was 6.5 mM. In addition, the “activation of W261A variant” value at W261A TAS2R16 (W261A TAS2R16, relative to wild-type) was “eliminated activation”. In addition, the “activation of wild-type TAS2R16” value at wild-type TAS2R16 (wild-type TAS2R16, HEK-293T) was “robust receptor activation”.
